These results are taken from PMC3551932, “STK295900, a Dual Inhibitor of Topoisomerase 1 and 2, Induces G2 Arrest in the Absence of DNA Damage” (PLoS ONE, 2013).

In one assay the test system is PC-3 cells. Put plainly: Cell growth inhibition assay, PC-3. The format is cell-based. Particulars: Homo sapiens, 96 h; Table 1; PC-3, prostate carcinoma; growth up to 4 days. From the text: (§1) Human epitheloid cervical carcinoma HeLa cells, human breast adenocarcinoma MCF7 and MDA-MB-231cells, human hepatocellular carcinoma HepG2 cells, human colon adenocarcinoma HT-29 cells, and human colorectal carcinoma HCT-116 cells were purchased from ATCC® and maintained in DMEM medium. Human prostate carcinoma PC-3 cells (purchased from ATCC®), human gastric carcinoma SNU-484 and SNU-601(obtained from Korean Cell Line Bank (KCLB)), human leukemia K-562 and HL-60 cells (purchased from ATCC®), immortalized human prostate epithelial 267B1cells, and immortalized human embryonic lung fibroblast MRC5CV1 cells were maintained in RPMI 1640 medium whereas immortalized retinal pigment epithelial hTERT RPE-1 cells (purchased from ATCC®) were maintained in DMEM/F12 medium. All cell lines were cultured in media supplemented with 10% fetal bovine serum, 100 U/ml penicillin, and […] streptomycin at 37°C in a 5% CO2 incubator.
(§2) Cells were seeded at the appropriate amount (1–2×10^3 cells) in triplicate in 96-well plates for 24 h and then treated with various concentrations of STK295900. Cell growth was determined by using EZ-CyTox cell viability assay kit (Daeil Lab. Service, Seoul, Korea). Ten microliters of WST solution were added to the treated cells at 24, 48, 72, and 96 h. Cells were further incubated at 37°C for 2 h and the absorbance was measured at 450 nm.

A further assay relates to SNU-601 cells. The assay can be described thus: Cell growth inhibition assay, SNU-601. The format is cell-based. Particulars: Homo sapiens, 96 h; Table 1; SNU-601, gastric carcinoma; growth up to 4 days.
Text: as §1, §2

Assay [1] deals with HeLa cells. Put plainly: Flow cytometric analysis for cell cycle distribution. The format is cell-based, human. To be noted: 24 h, control around 25%. On the procedure: For cell cycle analysis, HeLa cells were harvested following compound treatment for 24 h and stained with propidium iodide (PI) according to the instruction of Cycle Test Plus DNA Reagent kit from BD Biosciences (San Jose, CA). Flow cytometric analysis was performed using a FACSCalibur instrument (Becton Dickinson, San Jose, CA).
(§3) Figure 2 STK295900 induces G2 phase arrest in HeLa cells. (A) Flow cytometric analysis for cell cycle distribution. HeLa cells were treated with the indicated concentrations of STK295900 for 24 h. Treated cells were then stained with propidium iodide (PI) and processed for cell cycle analysis. The bar graph represents the mean percentage of each cell cycle phase ± SD from three independent experiments. * = p<0.05 versus the respective G1, S, or G2/M phase of DMSO-treated cells. (B) Mitotic index of STK295900. HeLa cells were treated with the indicated concentrations of STK295900 for 24 h. Cells were then stained with Hoechst 33342 and mitotic cells were counted. […] (C) Cell cycle related proteins expression. […] Treated cells were lysed and subjected to immunoblot analyses with antibodies against cyclin A, cyclin B1, phospho-Histone H3 (S10), and Histone H3. β-actin was used as a loading control.

The subject of assay [2] is HeLa cells. Put plainly: Immunoblot of cell cycle and DNA damage checkpoint proteins. The format is cell-based, human. Particulars: 24 h, STK295900 1 or 5 µM, camptothecin 10 µM, etoposide 10 µM. On the procedure:
Cells were lysed with cold RIPA buffer (50 mM Tris-HCl pH 8.0, 150 mM NaCl, 1% NP-40, 0.5% sodium deoxycholate, 0.1% SDS) containing freshly added protease inhibitor, phosphatase inhibitor (SIGMA), 1 mM DTT, and 1 mM Na3VO4 on ice for 1 h. Whole cell lysates were centrifuged at 15,000 rpm for 20 min and then the supernatant was transferred into a new tube. An appropriate amount of cell lysate was subjected to SDS-PAGE. Then the resolved proteins were transferred onto a PVDF membrane (Bio-Rad) for immunoblot analyses with specific antibodies. The proteins were detected using chemiluminescence solution (Thermo Scientific, Rockford, IL).
as §3, with “(A)” for “Figure 2 STK295900 induces G2 phase arrest in HeLa cells. (A)”
(A) G2/M transition regulated proteins expression. […] GAPDH was used as a loading control. (B) DNA damage-checkpoint related proteins. […] Images were analyzed on a fluorescence microscope.
A general note: In western blotting, separated proteins are transferred to a membrane and probed.

Assay [3] has as its target T1, calf thymus topoisomerase 1 (Bos taurus, UniProt F1MN93).
T1 construct: purified calf thymus topoisomerase 1; purchased Takara Bio, Shiga, Japan; host or cells: calf thymus (tissue-purified)
T1 sequence (F1MN93 1-767): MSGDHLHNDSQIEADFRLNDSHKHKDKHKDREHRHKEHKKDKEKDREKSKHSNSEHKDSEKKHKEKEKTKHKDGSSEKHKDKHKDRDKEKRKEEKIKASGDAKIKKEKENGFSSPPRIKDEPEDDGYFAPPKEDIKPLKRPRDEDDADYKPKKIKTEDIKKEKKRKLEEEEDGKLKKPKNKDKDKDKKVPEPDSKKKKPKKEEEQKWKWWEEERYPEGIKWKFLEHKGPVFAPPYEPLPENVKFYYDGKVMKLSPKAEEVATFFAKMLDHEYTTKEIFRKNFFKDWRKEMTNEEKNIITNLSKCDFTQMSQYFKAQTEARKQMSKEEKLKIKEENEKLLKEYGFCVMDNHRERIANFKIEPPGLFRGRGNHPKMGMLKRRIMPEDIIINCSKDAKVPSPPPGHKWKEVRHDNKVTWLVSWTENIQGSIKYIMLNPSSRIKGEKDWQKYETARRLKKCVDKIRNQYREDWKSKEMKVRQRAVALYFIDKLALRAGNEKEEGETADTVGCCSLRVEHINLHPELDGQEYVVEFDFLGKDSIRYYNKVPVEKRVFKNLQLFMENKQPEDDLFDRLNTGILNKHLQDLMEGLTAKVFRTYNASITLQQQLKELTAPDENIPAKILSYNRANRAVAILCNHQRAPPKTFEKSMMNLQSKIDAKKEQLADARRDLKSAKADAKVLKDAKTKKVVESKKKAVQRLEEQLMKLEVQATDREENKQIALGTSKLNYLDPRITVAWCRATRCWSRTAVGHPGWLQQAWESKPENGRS
The assay can be described thus: Supercoiled DNA relaxation assay for topoisomerase 1. The format is biochemical.

Each structure is given as a SMILES string.

Take `Nc1ccc(-c2nc3ccc(-c4ccc5nc(-c6ccc(N)cc6)[nH]c5c4)cc3[nH]2)cc1` [STK295900, 4,4′-(3H,3′H-5,5′-bibenzimidazole-2,2′-diyl)dianiline]: the IC50 (as a rule, the concentration at which inhibition is half-maximal) in the assay with PC-3 cells was 2720 nM. The molecule also returned an IC50 in the assay on SNU-601 cells of 2210 nM. Besides, the G2/M population entry in the assay on HeLa cells [1] (0.5 µM) is on record as “about 35%”. The molecule also yielded a G2/M population in the assay with HeLa cells [1] (1 µM) of approximately 55%. Moreover, the G2/M population in the assay with HeLa cells [1] (5 µM) is on record as approximately 65%. Besides, in the assay on HeLa cells [2], the “p53 and p21 levels” value is recorded as “did not induce upregulation of p53 but marginally affected p21 level”; the “phosphorylation-dependent activation of ATM (S1981), ATR (S428), Chk1 (S345), and Chk2 (T68)” value is “no increase in phosphorylations of ATM, ATR, Chk1, and Chk1”. In the assay on HeLa cells [2] (nocodazole 200 ng/ml), the “Phosphorylation of Cdk1 at T161” value is listed as “dose-dependent increase”; the “Wee1 and Cdc25C levels” value was “no change in Wee1 and Cdc25C levels”; the “cyclin A and cyclin B1 levels” value is “accumulations of cyclin A and cyclin B1”; the “inhibitory phosphorylation of Cdk1 (T14 and Y15)” value is on record as “dose-dependent increase”. Besides, the “supercoiled DNA at high concentrations (Top 1 catalytic activity)” value in assay [3] (high concentrations (50 and 100 µM)) is on record as “supercoiled DNA could be observed”. Also, the “Top 1-mediated DNA relaxation” value in assay [3] (pBR322, 37°C, 30 min, various concentrations) is “inhibited DNA relaxation activity of Top 1 in a dose-dependent manner”.
